Experimental data: publication PMC12348798, “Synthesis and Molecular Modeling of Antioxidant and Anti-Inflammatory Five-Membered Heterocycle–Cinnamic Acid Hybrids” (Molecules, 2025)

Tests used:
[1] = Interaction with the stable free radical DPPH (reducing activity)
Procedure: Firstly, the synthesized derivatives were evaluated for their ability to interact with the stable free radical 2,2-diphenyl-1-picrylhydrazyl (DPPH) at a concentration of 100 μM after 20 and 60 min (Table 2). DPPH is a valuable tool for studying antioxidant activity. Its reactivity with lipophilic compounds is not solely determined by their lipophilicity. The specific chemical structure of the antioxidant, the solvent used, and other factors can all influence the interaction with DPPH. However, lipophilic compounds tend to be well dissolved in organic solvents reacting with DPPH. Based on previous findings, the antioxidant activity is related with lipophilicity.
(§1) A 10 mM stock solution of the synthesized compounds was prepared in DMSO for the vitro assays. Serial dilutions were carried out to determine the IC50 values. Each experiment was conducted six times, with standard deviations remaining below 10% of the mean.
An in vitro study was conducted as previously described by our group. Free radical scavenging activity was evaluated by measuring absorbance at 517 nm after 20 and 60 min at room temperature.

[2] = Inhibition of AAPH-induced linoleic acid peroxidation
Procedure: In the lipid peroxidation assay, 2,2′-azobis(2-methylpropionamidine)dihydrochloride (AAPH) was used as a peroxyl radical inducer, and sodium linoleate as a substrate. The formation of 13-hydroperoxy-linoleic acid from linoleic acid was monitored by measuring absorbance at 234 nm. Trolox was used as a reference compound.
as §1
AAPH was employed as an inducer of alkyl peroxyl radicals. In this experiment, the compounds’ ability to inhibit the oxidation of linoleic acid by alkyl peroxyl radicals was assessed by monitoring the change in absorbance at 234 nm due to the formation of 13-hydroperoxy-linoleic acid. Trolox was used as the reference compound [59, 68].

[3] = molecular target: T1, soybean lipoxygenase (Glycine max, UniProt P08170); experiment: Inhibition of soybean lipoxygenase; assay type: biochemical; conditions: for IC50: soybean lipoxygenase, sodium linoleate substrate, read-out: LOX IC50; for inhibition at 100 µM: read-out: LOX % Inhibition 100 μM
T1 construct: purchased Sigma Aldrich, Merck KGaA, Darmstadt, Germany
T1 sequence (P08170 1-839): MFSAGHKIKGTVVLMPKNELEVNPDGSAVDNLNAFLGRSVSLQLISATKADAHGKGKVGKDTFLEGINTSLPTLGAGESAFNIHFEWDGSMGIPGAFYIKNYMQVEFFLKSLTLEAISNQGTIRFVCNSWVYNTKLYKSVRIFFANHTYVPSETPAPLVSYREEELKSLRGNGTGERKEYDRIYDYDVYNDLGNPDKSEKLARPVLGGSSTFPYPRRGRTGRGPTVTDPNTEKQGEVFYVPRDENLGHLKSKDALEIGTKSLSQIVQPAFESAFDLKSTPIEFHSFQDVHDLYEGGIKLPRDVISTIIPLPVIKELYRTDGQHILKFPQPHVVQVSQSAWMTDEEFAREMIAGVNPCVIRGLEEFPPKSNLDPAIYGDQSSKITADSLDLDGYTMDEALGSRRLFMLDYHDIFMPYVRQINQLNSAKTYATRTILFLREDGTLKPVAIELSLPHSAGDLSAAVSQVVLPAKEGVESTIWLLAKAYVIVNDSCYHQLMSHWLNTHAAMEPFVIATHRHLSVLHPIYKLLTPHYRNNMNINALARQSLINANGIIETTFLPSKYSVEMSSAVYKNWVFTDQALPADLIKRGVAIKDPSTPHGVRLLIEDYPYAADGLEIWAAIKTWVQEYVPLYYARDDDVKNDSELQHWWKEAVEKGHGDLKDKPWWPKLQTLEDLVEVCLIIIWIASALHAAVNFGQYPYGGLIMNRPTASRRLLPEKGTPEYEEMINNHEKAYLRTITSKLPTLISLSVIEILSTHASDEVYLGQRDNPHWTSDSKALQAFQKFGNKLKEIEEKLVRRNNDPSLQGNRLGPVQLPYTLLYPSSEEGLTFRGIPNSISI
Procedure: Lipoxygenase (LOX) is responsible for the formation of leukotrienes, important inflammatory mediators. Due to its important role, it is considered as a therapeutic target for inflammatory diseases. Soybean lipoxygenase (LOX), a plant-derived enzyme, has been extensively utilized as a model for investigating the functional and structural properties of the lipoxygenase family, due to its significant homology with human 5-LOX [35, 61].
A 10 mM stock solution of the synthesized compounds was prepared in DMSO for the vitro assays. Serial dilutions were carried out to determine the IC50 values.
Sodium linoleate (0.1 mM), 0.2 mL of soybean lipoxygenase solution (1/9 × 10^−4 w/v in saline), and 10 μL of the test compound stock solution (10 mM in DMSO) were incubated at room temperature. Absorbance was recorded at 234 nm while monitoring the formation of 13-hydroperoxy-linoleic acid. […] To determine IC50 values, various concentrations of the test compounds were applied.

[4] = tested on: Valosine-containing protein; parameters: method as in PMID 23245311; conditions: from the literature; cited from earlier work

Row | IC50 [3] | inhibition at 100 µM [3] | Compound | RA % 100 μM 20 min [1] | RA % 100 μM 60 min [1] | AAPH % Inhibition 100 μM [2] | Valosine-containing protein inhibition [4]
1 | 8.5 µM | – | O=C(C=Cc1ccccc1)NNC(=S)Nc1ccccc1 [Compound 3a, 2-Cinnamoyl-N-phenylhydrazine-1-carbothioamide] | 61% | 92% | 67% | –
2 | – | 49% | O=C(/C=C/c1ccc(Cl)cc1)NNC(=S)Nc1ccccc1 [Compound 3b, (E)-2-(3-(4-Chlorophenyl)acryloyl)-N-phenylhydrazine-1-carbothioamide] | 90% | 83% | 37% | –
3 | – | 45% | O=C(/C=C/c1ccc(F)cc1)NNC(=S)Nc1ccccc1 [Compound 3c, (E)-2-(3-(4-Fluorophenyl)acryloyl)-N-phenylhydrazine-1-carbothioamide] | 90% | 91% | 12% | –
4 | 8 µM | – | O=C(/C=C/c1ccc(Br)cc1)NNC(=S)Nc1ccccc1 [Compound 3d, (E)-2-(3-(4-Bromophenyl)acryloyl)-N-phenylhydrazine-1-carbothioamide] | 29% | 97% | 33% | –
5 | 9.75 µM | – | CC(=O)Oc1ccc(/C=C/C(=O)NNC(=S)Nc2ccccc2)cc1 [Compound 3e, (E)-4-(3-Oxo-3-(2-(phenylcarbamothioyl)hydrazineyl)prop-1-en-1-yl)phenyl acetate] | 83% | 21% | 47% | –
6 | 35 µM | – | O=C(/C=C/c1ccc2c(c1)OCO2)NNC(=S)Nc1ccccc1 [Compound 3f, (E)-2-(3-(Benzo[d][1,3]dioxol-5-yl)acryloyl)-N-phenylhydrazine-1-carbothioamide] | 70% | 89% | 58% | –
7 | 10 µM | – | O=C(/C=C/c1ccc(OCc2ccc(Br)cc2)cc1)NNC(=S)Nc1ccccc1 [Compound 3g, (E)-2-(3-(4-((4-Bromobenzyl)oxy)phenyl)acryloyl)-N-phenylhydrazine-1-carbothioamide] | 98% | 87% | 91% | –
8 | 7.5 µM | – | Sc1nnc(/C=C/c2ccccc2)n1-c1ccccc1 [Compound 4a, (E)-4-Phenyl-5-styryl-4H-1,2,4-triazole-3-thiol] | 74% | 93% | 26% | –
9 | 4.5 µM | – | Sc1nnc(/C=C/c2ccc(Cl)cc2)n1-c1ccccc1 [Compound 4b, (E)-5-(4-Chlorostyryl)-4-phenyl-4H-1,2,4-triazole-3-thiol] | 33% | 88% | 34% | –
10 | – | 35% | Fc1ccc(/C=C/c2nnc(S)n2-c2ccccc2)cc1 [Compound 4c, (E)-5-(4-Fluorostyryl)-4-phenyl-4H-1,2,4-triazole-3-thiol] | 82% | 93% | 94% | –
11 | 97.5 µM | – | Sc1nnc(/C=C/c2ccc(Br)cc2)n1-c1ccccc1 [Compound 4d, (E)-5-(4-Bromostyryl)-4-phenyl-4H-1,2,4-triazole-3-thiol] | 68% | 57% | 20% | allosteric Valosine-containing protein inhibitor
12 | 5.5 µM | – | CC(=O)Oc1ccc(/C=C/c2nnc(S)n2-c2ccccc2)cc1 [Compound 4e, (E)-4-(2-(5-Mercapto-4-phenyl-4H-1,2,4-triazol-3-yl)vinyl)phenyl acetate] | 96% | 93% | 87% | –
13 | 7.5 µM | – | Sc1nnc(/C=C/c2ccc3c(c2)OCO3)n1-c1ccccc1 [Compound 4f, (E)-5-(2-(Benzo[d][1,3]dioxol-5-yl)vinyl)-4-phenyl-4H-1,2,4-triazole-3-thiol] | 87% | 76% | 71% | –
14 | 4.5 µM | – | Sc1nnc(/C=C/c2ccc(OCc3ccc(Br)cc3)cc2)n1-c1ccccc1 [Compound 4g, (E)-5-(4-((4-Bromobenzyl)oxy)styryl)-4-phenyl-4H-1,2,4-triazole-3-thiol] | 97% | 92% | 50% | –
15 | 32.5 µM | – | C(=C\c1nnc(Nc2ccccc2)o1)/c1ccccc1 [Compound 5a, (E)-N-Phenyl-5-styryl-1,3,4-oxadiazol-2-amine] | – | 7% | 17% | –
16 | 18 µM | – | Clc1ccc(/C=C/c2nnc(Nc3ccccc3)o2)cc1 [Compound 5b, (E)-5-(4-Chlorostyryl)-N-phenyl-1,3,4-oxadiazol-2-amine] | 65% | 72% | – | –
17 | 17 µM | – | Fc1ccc(/C=C/c2nnc(Nc3ccccc3)o2)cc1 [Compound 5c, (E)-5-(4-Fluorostyryl)-N-phenyl-1,3,4-oxadiazol-2-amine] | 92% | 82% | 63% | –
18 | 5 µM | – | C(=C\c1nnc(Nc2ccccc2)s1)/c1ccccc1 [Compound 6a, (E)-N-Phenyl-5-styryl-1,3,4-thiadiazol-2-amine] | 98% | 96% | 60% | –
19 | – | – | CC(Cc1ccc(O)c(O)c1)C(C)Cc1ccc(O)c(O)c1 (centres unmarked) [NDGA, Nordihydroguaiaretic acid, reference compound] | 87% | 93% | – | –
20 | – | – | Cc1c(C)c2c(c(C)c1O)CCC(C)(C(=O)O)O2 (centres unmarked) [Trolox, 6-hydroxy-2,5,7,8-tetramethyl-chroman2-carboxylic acid, reference compound] | – | – | 92% | –
